Assay results published in PMC8550792, “Evolution of kinase polypharmacology across HSP90 drug discovery” (Cell Chemical Biology, 2021).
Residue numbers refer to the chain shown, from its start.

How the values were obtained:
Experiment in all cases: biochemical
Assay type in all cases: biochemical
382 unique human kinases [1] = biological target: T1, 382 unique human kinases (Homo sapiens, UniProt O15075); settings: DCAMKL1, 10 uM; for remaining activity at 10 µM: read-out: % Enzyme Activity (relative to DMSO controls)
T1 construct: purchased Reaction Biology (HotSpot contract assay)
T1 sequence (O15075 whole entry): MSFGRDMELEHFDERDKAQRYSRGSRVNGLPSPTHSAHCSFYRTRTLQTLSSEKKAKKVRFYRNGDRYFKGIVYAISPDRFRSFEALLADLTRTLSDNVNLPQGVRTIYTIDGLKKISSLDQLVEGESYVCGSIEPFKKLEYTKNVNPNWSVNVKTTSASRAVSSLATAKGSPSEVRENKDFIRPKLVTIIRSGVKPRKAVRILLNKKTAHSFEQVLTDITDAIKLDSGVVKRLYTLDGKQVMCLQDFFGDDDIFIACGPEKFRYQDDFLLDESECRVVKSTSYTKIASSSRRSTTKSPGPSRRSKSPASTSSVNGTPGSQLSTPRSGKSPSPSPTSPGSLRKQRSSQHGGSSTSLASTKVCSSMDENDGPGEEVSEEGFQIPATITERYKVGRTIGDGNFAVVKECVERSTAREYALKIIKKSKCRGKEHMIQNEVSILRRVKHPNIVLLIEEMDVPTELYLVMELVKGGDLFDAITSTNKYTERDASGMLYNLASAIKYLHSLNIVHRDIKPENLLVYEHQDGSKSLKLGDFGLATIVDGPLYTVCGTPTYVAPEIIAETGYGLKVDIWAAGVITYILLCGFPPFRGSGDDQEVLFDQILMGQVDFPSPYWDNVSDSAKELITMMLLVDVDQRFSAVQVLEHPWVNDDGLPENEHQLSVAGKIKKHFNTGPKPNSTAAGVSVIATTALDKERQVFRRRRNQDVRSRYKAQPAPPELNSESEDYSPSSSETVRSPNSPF

382 unique human kinases [2] = biological target: T2, 382 unique human kinases (Homo sapiens, UniProt Q9BZL6, G870E); settings: PKD2 (G870E), [ATP] 30 µM, compound 10 uM; for remaining activity at 10 µM: read-out: % Enzyme Activity (relative to DMSO controls)
T2 construct: purchased Reaction Biology (HotSpot contract assay)
T2 sequence (Q9BZL6 1-878 G870E): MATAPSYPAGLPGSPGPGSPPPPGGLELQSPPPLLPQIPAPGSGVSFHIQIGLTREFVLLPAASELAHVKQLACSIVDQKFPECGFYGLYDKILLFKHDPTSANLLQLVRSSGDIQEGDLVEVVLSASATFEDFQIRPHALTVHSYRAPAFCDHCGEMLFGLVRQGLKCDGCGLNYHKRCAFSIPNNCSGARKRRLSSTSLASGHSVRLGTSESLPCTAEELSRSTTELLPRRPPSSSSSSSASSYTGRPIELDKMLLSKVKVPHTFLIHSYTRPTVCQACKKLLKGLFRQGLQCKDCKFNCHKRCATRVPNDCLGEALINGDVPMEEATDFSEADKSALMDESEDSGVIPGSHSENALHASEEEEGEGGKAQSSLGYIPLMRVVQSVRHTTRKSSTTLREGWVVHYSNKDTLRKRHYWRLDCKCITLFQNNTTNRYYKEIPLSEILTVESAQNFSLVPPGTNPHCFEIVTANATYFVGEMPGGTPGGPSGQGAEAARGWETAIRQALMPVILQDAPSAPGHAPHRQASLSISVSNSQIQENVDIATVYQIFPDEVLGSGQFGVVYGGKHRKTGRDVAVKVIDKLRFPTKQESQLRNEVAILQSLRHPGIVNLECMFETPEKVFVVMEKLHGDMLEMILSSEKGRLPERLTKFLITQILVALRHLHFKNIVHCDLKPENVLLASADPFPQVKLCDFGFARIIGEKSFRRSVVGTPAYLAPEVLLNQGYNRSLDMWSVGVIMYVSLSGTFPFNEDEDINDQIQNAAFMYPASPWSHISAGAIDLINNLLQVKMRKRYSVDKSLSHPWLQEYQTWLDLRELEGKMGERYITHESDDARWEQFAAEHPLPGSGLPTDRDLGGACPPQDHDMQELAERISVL

382 unique human kinases [3] = biological target: T3, 382 unique human kinases (Homo sapiens, UniProt Q9BZL6); settings: kinase PKD2/PRKD2, compound 10 uM; for remaining activity at 10 µM: read-out: % Enzyme Activity (relative to DMSO controls)
T3 construct: purchased Reaction Biology (HotSpot contract assay)
T3 sequence (Q9BZL6 1-878): T2 sequence (Q9BZL6 1-878 G870E) with E870G

382 unique human kinases [4] = biological target: T4, 382 unique human kinases (Homo sapiens, UniProt Q9Y5S2); settings: MRCKb/CDC42BPB, 10 uM; for remaining activity at 10 µM: read-out: % Enzyme Activity (relative to DMSO controls)
T4 construct: purchased Reaction Biology (HotSpot contract assay)
T4 sequence (Q9Y5S2 whole entry): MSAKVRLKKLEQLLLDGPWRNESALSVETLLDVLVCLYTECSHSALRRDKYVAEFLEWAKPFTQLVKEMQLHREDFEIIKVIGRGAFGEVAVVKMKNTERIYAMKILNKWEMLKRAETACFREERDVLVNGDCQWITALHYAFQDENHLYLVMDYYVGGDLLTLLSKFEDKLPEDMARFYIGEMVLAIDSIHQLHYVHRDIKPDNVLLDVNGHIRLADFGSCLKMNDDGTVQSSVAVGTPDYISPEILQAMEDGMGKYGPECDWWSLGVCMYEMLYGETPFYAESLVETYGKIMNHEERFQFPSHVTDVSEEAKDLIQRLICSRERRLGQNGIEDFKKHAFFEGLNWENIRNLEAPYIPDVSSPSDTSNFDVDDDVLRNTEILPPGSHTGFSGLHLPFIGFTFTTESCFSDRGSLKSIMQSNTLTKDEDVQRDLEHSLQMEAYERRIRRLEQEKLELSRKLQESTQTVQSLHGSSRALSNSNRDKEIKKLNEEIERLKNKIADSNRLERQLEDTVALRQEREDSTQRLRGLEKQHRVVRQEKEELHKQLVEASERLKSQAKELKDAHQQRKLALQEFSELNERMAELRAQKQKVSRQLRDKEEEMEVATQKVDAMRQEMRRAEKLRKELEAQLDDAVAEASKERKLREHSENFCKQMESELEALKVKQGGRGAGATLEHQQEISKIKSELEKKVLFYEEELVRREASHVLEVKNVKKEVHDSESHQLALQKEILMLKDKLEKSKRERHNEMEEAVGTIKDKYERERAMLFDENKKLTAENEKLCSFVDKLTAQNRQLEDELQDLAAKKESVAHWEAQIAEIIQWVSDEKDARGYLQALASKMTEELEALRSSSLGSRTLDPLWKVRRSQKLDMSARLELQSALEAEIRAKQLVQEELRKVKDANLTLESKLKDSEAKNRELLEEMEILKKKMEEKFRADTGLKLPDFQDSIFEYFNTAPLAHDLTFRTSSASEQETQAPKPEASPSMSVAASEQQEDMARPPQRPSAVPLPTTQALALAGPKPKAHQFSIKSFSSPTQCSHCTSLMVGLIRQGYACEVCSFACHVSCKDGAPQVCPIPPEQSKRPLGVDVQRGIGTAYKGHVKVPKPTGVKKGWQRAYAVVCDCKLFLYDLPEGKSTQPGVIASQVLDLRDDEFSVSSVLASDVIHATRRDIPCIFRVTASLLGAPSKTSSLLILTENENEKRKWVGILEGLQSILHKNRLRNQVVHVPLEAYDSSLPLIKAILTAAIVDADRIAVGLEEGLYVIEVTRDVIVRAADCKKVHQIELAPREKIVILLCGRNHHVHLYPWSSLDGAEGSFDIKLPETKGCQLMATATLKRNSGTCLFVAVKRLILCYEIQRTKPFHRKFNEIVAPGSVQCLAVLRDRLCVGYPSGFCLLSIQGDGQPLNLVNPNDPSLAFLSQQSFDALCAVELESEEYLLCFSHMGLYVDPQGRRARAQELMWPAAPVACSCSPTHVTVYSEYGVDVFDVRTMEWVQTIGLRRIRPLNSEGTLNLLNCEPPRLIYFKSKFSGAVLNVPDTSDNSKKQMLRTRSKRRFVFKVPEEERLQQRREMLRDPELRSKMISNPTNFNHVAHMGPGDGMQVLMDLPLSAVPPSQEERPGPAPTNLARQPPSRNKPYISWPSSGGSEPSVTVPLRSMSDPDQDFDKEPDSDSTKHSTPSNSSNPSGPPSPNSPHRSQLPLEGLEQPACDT

382 unique human kinases [5] = biological target: T5, 382 unique human kinases (Homo sapiens, UniProt Q06187, P190K); settings: BTK (P190K), 10 uM; for remaining activity at 10 µM: read-out: % Enzyme Activity (relative to DMSO controls)
T5 construct: purchased Reaction Biology (HotSpot contract assay)
T5 sequence (Q06187 whole entry P190K): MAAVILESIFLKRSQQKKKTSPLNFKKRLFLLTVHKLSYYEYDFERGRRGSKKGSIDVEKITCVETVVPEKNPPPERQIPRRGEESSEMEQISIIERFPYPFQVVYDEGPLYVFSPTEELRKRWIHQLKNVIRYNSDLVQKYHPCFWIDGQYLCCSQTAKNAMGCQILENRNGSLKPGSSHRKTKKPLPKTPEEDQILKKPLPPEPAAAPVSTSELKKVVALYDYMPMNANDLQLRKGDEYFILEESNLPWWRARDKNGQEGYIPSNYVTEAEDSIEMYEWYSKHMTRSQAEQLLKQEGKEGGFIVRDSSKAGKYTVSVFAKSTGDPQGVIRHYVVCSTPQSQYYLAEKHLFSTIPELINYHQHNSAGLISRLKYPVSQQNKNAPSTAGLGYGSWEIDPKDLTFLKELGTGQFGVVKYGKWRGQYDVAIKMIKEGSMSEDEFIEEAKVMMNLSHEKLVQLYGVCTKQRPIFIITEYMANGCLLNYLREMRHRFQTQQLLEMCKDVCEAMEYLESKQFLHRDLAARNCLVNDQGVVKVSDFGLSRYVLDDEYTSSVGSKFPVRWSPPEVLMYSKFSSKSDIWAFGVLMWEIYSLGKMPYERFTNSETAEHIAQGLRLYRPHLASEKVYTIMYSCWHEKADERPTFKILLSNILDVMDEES

382 unique human kinases [6] = biological target: T6, 382 unique human kinases (Homo sapiens, UniProt Q8IW41); settings: MAPKAPK5/PRAK, compound at 10 uM, duplicate values; for remaining activity at 10 µM: read-out: % Enzyme Activity (relative to DMSO controls)
T6 construct: purchased Reaction Biology (HotSpot contract assay)
T6 sequence (Q8IW41 1-473): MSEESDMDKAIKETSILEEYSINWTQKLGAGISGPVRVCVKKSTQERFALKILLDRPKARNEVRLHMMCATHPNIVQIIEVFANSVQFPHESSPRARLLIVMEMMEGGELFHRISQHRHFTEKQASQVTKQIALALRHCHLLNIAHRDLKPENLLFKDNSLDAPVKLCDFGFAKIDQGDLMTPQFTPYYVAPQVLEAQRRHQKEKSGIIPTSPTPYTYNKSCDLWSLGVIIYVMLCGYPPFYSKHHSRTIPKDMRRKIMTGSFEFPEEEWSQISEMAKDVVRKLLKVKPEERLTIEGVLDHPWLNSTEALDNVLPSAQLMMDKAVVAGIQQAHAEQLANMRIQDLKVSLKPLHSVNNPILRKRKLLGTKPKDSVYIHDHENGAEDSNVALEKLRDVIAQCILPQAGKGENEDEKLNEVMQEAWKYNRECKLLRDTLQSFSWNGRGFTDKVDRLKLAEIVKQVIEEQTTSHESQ

382 unique human kinases [7] = biological target: T7, 382 unique human kinases (Homo sapiens, UniProt P00533); settings: EGFR, 10 uM; for remaining activity at 10 µM: read-out: % Enzyme Activity (relative to DMSO controls)
T7 construct: purchased Reaction Biology (HotSpot contract assay)

382 unique human kinases [8] = biological target: T8, 382 unique human kinases (Homo sapiens, UniProt P07949); settings: kinase RET, compound 10 uM; for remaining activity at 10 µM: read-out: % Enzyme Activity (relative to DMSO controls)
T8 construct: purchased Reaction Biology (HotSpot contract assay)
T8 sequence (P07949 29-1114): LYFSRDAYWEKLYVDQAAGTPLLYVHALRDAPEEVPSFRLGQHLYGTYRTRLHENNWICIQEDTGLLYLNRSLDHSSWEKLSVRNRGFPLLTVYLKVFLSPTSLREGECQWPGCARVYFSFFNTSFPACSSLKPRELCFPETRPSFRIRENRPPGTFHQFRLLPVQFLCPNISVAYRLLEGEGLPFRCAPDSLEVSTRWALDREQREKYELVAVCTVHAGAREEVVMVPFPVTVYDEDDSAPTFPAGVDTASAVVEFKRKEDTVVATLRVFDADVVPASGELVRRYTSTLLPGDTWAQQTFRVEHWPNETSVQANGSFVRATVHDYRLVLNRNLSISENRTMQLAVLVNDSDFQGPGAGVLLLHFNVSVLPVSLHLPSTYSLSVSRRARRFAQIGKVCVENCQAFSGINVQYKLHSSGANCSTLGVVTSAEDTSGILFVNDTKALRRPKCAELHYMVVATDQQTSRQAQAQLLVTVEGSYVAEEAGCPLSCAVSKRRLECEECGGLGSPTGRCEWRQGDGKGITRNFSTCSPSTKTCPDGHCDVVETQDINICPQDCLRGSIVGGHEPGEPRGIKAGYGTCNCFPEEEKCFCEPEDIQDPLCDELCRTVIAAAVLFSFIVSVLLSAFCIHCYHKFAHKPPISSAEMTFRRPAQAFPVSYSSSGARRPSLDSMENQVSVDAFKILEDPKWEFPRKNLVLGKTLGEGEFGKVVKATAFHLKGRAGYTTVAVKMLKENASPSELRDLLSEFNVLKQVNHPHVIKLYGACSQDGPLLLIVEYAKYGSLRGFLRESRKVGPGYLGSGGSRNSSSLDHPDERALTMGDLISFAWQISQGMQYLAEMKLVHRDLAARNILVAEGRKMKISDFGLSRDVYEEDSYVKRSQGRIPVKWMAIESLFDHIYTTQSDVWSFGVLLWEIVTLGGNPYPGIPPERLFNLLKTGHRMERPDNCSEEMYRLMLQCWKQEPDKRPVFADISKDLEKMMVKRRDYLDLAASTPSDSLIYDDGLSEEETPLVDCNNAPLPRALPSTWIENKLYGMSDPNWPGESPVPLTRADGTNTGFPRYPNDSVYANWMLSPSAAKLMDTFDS

382 unique human kinases [9] = biological target: T9, 382 unique human kinases (Homo sapiens, UniProt O75676); settings: kinase MSK2/RPS6KA4, compound 10 uM; for remaining activity at 10 µM: read-out: % Enzyme Activity (relative to DMSO controls)
T9 construct: purchased Reaction Biology (HotSpot contract assay)
T9 sequence (O75676 whole entry): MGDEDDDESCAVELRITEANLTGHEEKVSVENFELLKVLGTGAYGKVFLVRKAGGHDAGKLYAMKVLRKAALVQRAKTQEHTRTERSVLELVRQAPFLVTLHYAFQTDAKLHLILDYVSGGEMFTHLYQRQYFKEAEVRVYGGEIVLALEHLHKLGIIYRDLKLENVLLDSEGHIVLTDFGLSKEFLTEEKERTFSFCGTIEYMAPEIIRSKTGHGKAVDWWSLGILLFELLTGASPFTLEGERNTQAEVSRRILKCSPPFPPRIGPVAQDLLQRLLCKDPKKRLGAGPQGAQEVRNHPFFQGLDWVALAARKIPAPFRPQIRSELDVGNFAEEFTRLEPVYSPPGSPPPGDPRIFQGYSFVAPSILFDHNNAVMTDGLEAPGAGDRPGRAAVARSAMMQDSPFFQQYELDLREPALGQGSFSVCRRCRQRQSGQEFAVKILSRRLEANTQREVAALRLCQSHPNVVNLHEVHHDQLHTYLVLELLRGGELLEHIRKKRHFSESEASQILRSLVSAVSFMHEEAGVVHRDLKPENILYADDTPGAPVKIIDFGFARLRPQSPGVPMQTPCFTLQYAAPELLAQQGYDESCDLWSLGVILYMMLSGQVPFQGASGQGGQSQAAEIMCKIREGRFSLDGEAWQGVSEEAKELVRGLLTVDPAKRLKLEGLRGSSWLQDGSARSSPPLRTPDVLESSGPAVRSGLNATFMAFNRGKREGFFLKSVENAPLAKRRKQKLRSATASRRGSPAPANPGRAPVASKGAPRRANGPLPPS

382 unique human kinases [10] = biological target: T10, 382 unique human kinases (Homo sapiens, UniProt P36507); settings: MEK2, 10 uM; for remaining activity at 10 µM: read-out: % Enzyme Activity (relative to DMSO controls)
T10 construct: purchased Reaction Biology (HotSpot contract assay)

Row | SMILES | % Enzyme Activity (relative to DMSO controls) (382 unique human kinases [1]) [%] | remaining activity at 10 µM (382 unique human kinases [1]) [%] | % Enzyme Activity (relative to DMSO controls) (382 unique human kinases [2]) [%] | remaining activity at 10 µM (382 unique human kinases [2]) [%] | remaining activity at 10 µM (382 unique human kinases [3]) [%] | remaining activity at 10 µM (382 unique human kinases [4]) [%] | remaining activity at 10 µM (382 unique human kinases [5]) [%] | remaining activity at 10 µM (382 unique human kinases [6]) [%] | remaining activity at 10 µM (382 unique human kinases [7]) [%] | remaining activity at 10 µM (382 unique human kinases [8]) [%] | remaining activity at 10 µM (382 unique human kinases [9]) [%] | remaining activity at 10 µM (382 unique human kinases [10]) [%] | % Enzyme Activity (relative to DMSO controls) (382 unique human kinases [3]) [%] | % Enzyme Activity (relative to DMSO controls) (382 unique human kinases [4]) [%] | % Enzyme Activity (relative to DMSO controls) (382 unique human kinases [5]) [%] | % Enzyme Activity (relative to DMSO controls) (382 unique human kinases [6]) [%] | % Enzyme Activity (relative to DMSO controls) (382 unique human kinases [7]) [%] | % Enzyme Activity (relative to DMSO controls) (382 unique human kinases [8]) [%] | % Enzyme Activity (relative to DMSO controls) (382 unique human kinases [9]) [%] | % Enzyme Activity (relative to DMSO controls) (382 unique human kinases [10]) [%]
1 | CCNC(=O)c1noc(-c2cc(C(C)C)c(O)cc2O)c1-c1ccc(CN2CCOCC2)cc1 [Luminespib] | 95.95 | 96.9 | 103.84 | 104 | – | – | – | – | – | – | – | – | – | – | – | – | – | – | – | –
2 | CC(C)c1cc(-c2n[nH]c(=O)n2-c2ccc3c(ccn3C)c2)c(O)cc1O [Ganetespib (STA9090)] | – | – | – | – | 87 | 78.9 | 62.1 | 102 | 76 | 84.5 | 87.3 | 61.1 | – | – | – | – | – | – | – | –
3 | CCNC(=O)c1noc(-c2cc(C(C)C)c(O)cc2O)c1-c1ccc(CN2CCOCC2)cc1 [Luminespib (AUY-922)] | – | – | – | – | 99.3 | 111 | 61.9 | 104 | 95.1 | 94.4 | 94.4 | 99.5 | 97.40 | 103.51 | 61.43 | 101.76 | 93.47 | 94.03 | 94.10 | 98.43
4 | CC(C)c1cc(-c2n[nH]c(=O)n2-c2ccc3c(ccn3C)c2)c(O)cc1O [Ganetespib] | – | 113 | – | 59.7 | – | – | – | – | – | – | – | – | – | – | – | – | – | – | – | –
